The source of these data is patent EP4775570A1, “CYP11A1 INHIBITOR, PREPARATION METHOD THEREFOR AND USE THEREOF” (Shenzhen Zhongge Biological Technology Co., Ltd., priority 2023, dated 2025).

Series [1] concerns testosterone, progesterone, corticosterone. Put plainly: LC-MS detection of testosterone, progesterone and corticosterone in mouse tumors and adrenal glands. Type of series: in vivo. Particulars: VCaP model; for secretion of testosterone, progesterone and corticosterone in tumors and adrenal glands (in words): mouse tumors and adrenal glands. An excerpt: (§1) • Mouse tumors were homogenized using PBS in a 1:5 ratio (tumor weight (g): PBS volume (mL), w/v); • Mouse adrenal glands were homogenized using PBS in a 1:10 ratio (adrenal gland weight (g): PBS volume (mL), w/v); • Standard sample: testosterone (LGC, C17322500), progesterone (MCE, HY-N0437), adrenal ketone (MCE, HY-B1618), and standard solution of test substance.
Experiment procedures: since the three markers, i.e., testosterone, progesterone, and adrenal ketone, are all endogenous substances and present in the blank matrix as well, PBS was alternatively used as matrix in the production of the standard curve.
Testosterone: multiple reaction monitoring (MRM) method was used for detecting the concentrations of testosterone in mouse tumors and adrenal glands. Mass spectrum: AB Sciex Triple Quad 6500+; liquid chromatography: Shimadzu 40A, column: Waters XBridge BEH C18 2.5 µm 2.1*50mm, testosterone ion pair: 289.4/97.2. Both tumor and adrenal tissues were treated with methanol as precipitant and tolbutamide as internal standard for sample pretreatment, with linear range in 50-50,000pg/mL.
Progesterone and corticosterone: multi-reaction detection method (MRM) was used for detecting the concentrations of progesterone and corticosterone in mouse tumors and adrenal glands. Mass spectrum: AB Sciex Triple Quad 6500+; liquid chromatography: Shimadzu 40A, column: Waters XSelect HSS T3 2.5 µm 2.1*50mm, progesterone ion pair: 315.4/97.2, adrenone ion pair: 347.4/121.3. For tumor tissues, acetonitrile was used as precipitant and propranolol diclofenac as internal standard for sample pretreatment, with linear ranges in 0.05-10 ng/mL of progesterone and 0.10-20 ng/mL of corticosterone. For adrenal tissues, methanol was used as precipitant and propranolol diclofenac as internal standard for sample pretreatment, with linear ranges in 5-2,500 ng/mL of progesterone and 5-2,500 ng/mL of corticosterone.

Series [2] can be described thus: LC-MS detection of concentrations of tested compounds in mouse plasma, tumors and adrenal glands. Type of series: in vivo. Particulars: compound + prednisone group vs ODM-208 + prednisone group of the VCaP model.
Source text: as §1
Concentrations of tested compounds in mouse plasma, tumors and adrenal glands: The multiple reaction monitoring (MRM) method was used to detect the concentrations in mouse plasma, tumors and adrenal glands. Mass spectrum: AB Sciex Triple Quad 6500+, liquid chromatography: Shimadzu 40A, column: XBridge BEH C18 2.5 µm 2.1*50mm, ODM208 ion pair: 419.20/176.20, tested compounds ion pair: 429.20/200.20. Acetonitrile was used as precipitant, and propranolol diclofenac were used as the internal standard for sample pretreatment in plasma, tumor, and adrenal tissue. The linear ranges of the standard in plasma tissue was 0.5-1000 ng/mL, the linear ranges of the standard in tumor tissue was 3-6000 ng/mL, and the linear ranges of the standard in adrenal tissue was 5.5-11000 ng/mL.

Each structure is given as a SMILES string.

In the case of `COc1cc(CN2Cc3ccccc3C2)ccc1CCC1CCN(S(C)(=O)=O)CC1` [compound 53], in series [1] (adrenal glands, fraction of the ODM-208 group), the “concentration of progesterone in the adrenal glands, relative to ODM-208” value is 1/4. The “secretion of testosterone, progesterone and corticosterone in tumors and adrenal glands (in words)” value in series [1] was “significantly inhibited”. In addition, in series [1] (tumors, fraction of the ODM-208 group), the “concentration of testosterone in the tumors, relative to the ODM-208 group” value is reported as 1/8. Besides, in series [2], the “drug concentration in adrenal glands relative to ODM-208” value is 80 fold, the “drug concentration in plasma relative to ODM-208” value is reported as 3 fold and the “drug concentration in tumors relative to ODM-208” value turned out to be 10 fold.
Turning to `Cn1c(CN2Cc3ccccc3C2)c(F)cc(CCC2CCN(S(C)(=O)=O)CC2)c1=O` [compound 72], in series [1] (adrenal glands of mice, vs control group), the “secretion of progesterone in the adrenal glands (in words)” value was “significant inhibitory effect”. Further, the “secretion of testosterone, progesterone and corticosterone in tumors and adrenal glands (in words)” value in series [1] was “significantly inhibited”. In addition, in series [2], the “drug concentration in adrenal glands relative to ODM-208” value is given as 3.3 fold, the “drug concentration in plasma relative to ODM-208” value is 1.6 fold and the “drug concentration in tumors relative to ODM-208” value was 3.6 fold.
